“And” between values parts separate entries of the source, which are not always exact repeats. Equal entries are not always repeated. Where two headings read alike, the source gives them in different places.
Tests used:
[1] = system: series C (double-resistant) replicon cells; assay: HCV replicon cell assay, 48-hour; assay type: cell-based, Hepatitis C virus
[2] = system: series A (VX-950-resistant) replicon cells; assay: HCV replicon cell assay, 48-hour; assay type: cell-based, Hepatitis C virus
A156V HCV replicon cells = assay: HCV replicon cell assay, 48-hour; assay type: cell-based, Hepatitis C virus; details: for IC50: 48-hour assay
Text: (§1) During the course of generating of the HCV sub-genomic replicon stable cell lines, several different patterns of adaptive mutations were identified. One pattern has three substitutions in the HCV nonstructural proteins, which were introduced into the original pBR322-HCV-Neo plasmid by site-directed mutagenesis to generate the second-generation sub-genomic replicon plasmid, pBR322-HCV-Neo-mADE. When the T7 run-offRNA transcripts from the Sca I-linearized pBR322-HCV-Neo-mADE plasmid were electroporated into Huh7 cells, stable replicon cell colonies were formed at a much higher efficiency than the original Con1 replicon RNA. The resistance mutations identified in this study were introduced into the pBR322-HCV-Neo-mADE replicon plasmid by site-directed mutagenesis. Stable replicon cell lines were generated using the T7 transcripts derived from either wild type pBR322-HCV-Neo-mADE or the ones with the resistance mutations.
(§2) Cells containing hepatitis C virus (HCV) replicon were maintained in DMEM containing 10% fetal bovine serum (FBS), 0.25 mg per ml of G418, with appropriate supplements (media A).
(§3) On day 1, replicon cell monolayer was treated with a trypsin:EDTA mixture, removed, and then media A was diluted into a final concentration of 100,000 cells per ml with. 10,000 cells in 100 ul were plated into each well of a 96-well tissue culture plate, and cultured overnight in a tissue culture incubator at 37° C.
(§4) On day 2, compounds (in 100% DMSO) were serially diluted into DMEM containing 2% FBS, 0.5% DMSO, with appropriate supplements (media B). The final concentration of DMSO was maintained at 0.5% throughout the dilution series.
(§5) Media on the replicon cell monolayer was removed, and then media B containing various concentrations of compounds was added. Media B without any compound was added to other wells as no compound controls.
(§6) Cells were incubated with compound or 0.5% DMSO in media B for 48 hours in a tissue culture incubator at 37° C. At the end of the 48-hour incubation, the media was removed, and the replicon cell monolayer was washed once with PBS and stored at −80° C. prior to RNA extraction.
(§7) Culture plates with treated replicon cell monolayers were thawed, and a fixed amount of another RNA virus, such as Bovine Viral Diarrhea Virus (BVDV) was added to cells in each well. RNA extraction reagents (such as reagents from RNeasy kits) were added to the cells immediately to avoid degradation of RNA. Total RNA was extracted according the instruction of manufacturer with modification to improve extraction efficiency and consistency. Finally, total cellular RNA, including HCV replicon RNA, was eluted and stored at −80° C. until further processing.
(§8) A Taqman real-time RT-PCR quantification assay was set up with two sets of specific primers and probe. One was for HCV and the other was for BVDV. Total RNA extractants from treated HCV replicon cells was added to the PCR reactions for quantification of both HCV and BVDV RNA in the same PCR well. Experimental failure was flagged and rejected based on the level of BVDV RNA in each well. The level of HCV RNA in each well was calculated according to a standard curve run in the same PCR plate. The percentage of inhibition or decrease of HCV RNA level due to compound treatment was calculated using the DMSO or no compound control as 0% of inhibition. The cytotoxicity of the compounds was measured using a mitochondrial enzyme-based cell viability assay, CellTiter 96 AQueous One Solution Cell Proliferation Assay (Promega).
(§9) Table 6 summary: Three HCV sub-genomic replicon stable cell lines, including the wild-type, and two mutants, A156T and A156V, were generated using the T7 RNA runoff transcripts from the corresponding high efficiency Con 1 replicon plasmids.

A156T HCV replicon cells = assay: HCV replicon cell assay, 48-hour; assay type: cell-based, Hepatitis C virus; details: for IC50: 48-hour assay
Text: as §1, §2, §3, §4, §5, §6, §7, §8, §9

[3] = system: wild type HCV replicon cells (high efficiency Con1 replicon); assay: HCV replicon cell assay, 48-hour; assay type: cell-based, Hepatitis C virus
Text: as §1, §2
On day 1, replicon cell monolayer was treated with a trypsin:EDTA mixture, removed, and then media A was diluted into a final concentration of 100,000 cells per ml with. […]
as §8, with “One was for HCV and the other was for BVDV.” left out, “Experimental failure was flagged and rejected based on the level of BVDV RNA in each well.” left out, “(Promega). […]” for “(Promega).”

[4] = system: wild-type HCV Con1 sub-genomic replicon cells; assay: HCV replicon cell assay, 48-hour; assay type: cell-based, Hepatitis C virus; details: 48-hour assay
Experimental: as §2, §3
On day 2, compounds (in 100% DMSO) were serially diluted into DMEM containing 2% FBS, 0.5% DMSO, with appropriate supplements (media B). […]
as §8, with “One was for HCV and the other was for BVDV.” left out, “Experimental failure was flagged and rejected based on the level of BVDV RNA in each well.” left out

A156S HCV replicon cells = assay: HCV replicon cell assay, 48-hour; assay type: cell-based, Hepatitis C virus
Text: as §1, §2, §3, §4, §5, §6, §7, §8
(§10) Four HCV sub-genomic replicon stable cell lines, including the wild type (wt), and three mutants, A156S, D168V and D168A, were generated using the T7 RNA runoff transcripts from the corresponding high efficiency Con1 replicon plasmids.

D168V HCV replicon cells = assay: HCV replicon cell assay, 48-hour; assay type: cell-based, Hepatitis C virus; details: read-out: Replicon IC50
Text: as §1, §2, §3, §4, §5, §6, §7, §8, §10

D168A HCV replicon cells = assay: HCV replicon cell assay, 48-hour; assay type: cell-based, Hepatitis C virus; details: 48-hour assay
Text: as §1, §2, §3, §4, §5, §6, §7, §8, §10

[5] = molecular target: wild type HCV NS3 serine protease domain, genotype 1b (Hepatitis C virus genotype 1b, UniProt Q9WMX2); assay: biochemical
[6] = molecular target: T1, D168V mutant HCV NS3 serine protease domain (Hepatitis C virus genotype 1b, UniProt Q9WMX2, D1194V); assay: FRET enzyme assay, Ki; assay type: biochemical
T1 construct: A DNA fragment encoding residues Ala^1-Ser^181 of the HCV NS3 protease (GenBank CAB46913); hexa-histidine (C); made in house; host or cells: E. coli BL21/DE3 pLysS

[7] = molecular target: T2, D168A mutant HCV NS3 serine protease domain (Hepatitis C virus genotype 1b, UniProt Q9WMX2, D1194A); assay: FRET enzyme assay, Ki; assay type: biochemical
T2 construct: A DNA fragment encoding residues Ala^1-Ser^181 of the HCV NS3 protease (GenBank CAB46913); hexa-histidine (C); made in house; host or cells: E. coli BL21/DE3 pLysS

[8] = molecular target: T3, A156S mutant HCV NS3 serine protease domain (Hepatitis C virus genotype 1b, UniProt Q9WMX2, A1182S); assay: FRET enzyme assay, Ki; assay type: biochemical
T3 construct: A DNA fragment encoding residues Ala^1-Ser^181 of the HCV NS3 protease (GenBank CAB46913); hexa-histidine (C); made in house; host or cells: E. coli BL21/DE3 pLysS

[9] = system: series B (BILN 2061-resistant) replicon cells; assay: HCV replicon cell assay, 48-hour; assay type: cell-based; details: Hepatitis C virus
[10] = system: series D (double-resistant) replicon cells; assay: HCV replicon cell assay, 48-hour; assay type: cell-based, Hepatitis C virus
[11] = molecular target: T4, A156T mutant HCV NS3 serine protease domain (Hepatitis C virus genotype 1b, UniProt Q9WMX2, A1182T); assay: FRET enzyme assay, Ki; assay type: biochemical
T4 construct: A DNA fragment encoding residues Ala^1-Ser^181 of the HCV NS3 protease (GenBank CAB46913); hexa-histidine (C); made in house; host or cells: E. coli

[12] = molecular target: T5, A156V mutant HCV NS3 serine protease domain (Hepatitis C virus genotype 1b, UniProt Q9WMX2, A1182V); assay: FRET enzyme assay, Ki; assay type: biochemical
T5 construct: A DNA fragment encoding residues Ala^1-Ser^181 of the HCV NS3 protease (GenBank CAB46913); hexa-histidine (C); made in house; host or cells: E. coli

[13] = series C replicon cells at day 52

BILN 2061 [reference compound]
IC50 [1, 13]: ~3000 nM
IC50 higher than against the series A replicon cells [1, 13]: 300 fold
IC50 ([2]; series A (VX-950-resistant) replicon cells): ~10 nM
decrease in sensitivity conferred by the mutation (A156V HCV replicon cells): more than 1.400 fold
IC50 (A156V HCV replicon cells): 5760 nM
IC50 (A156T HCV replicon cells): 1090 nM
IC50 ([3]; read-out: IC50): 4 nM
IC50 [4]: 1 nM
IC50 (A156S HCV replicon cells; read-out: IC50): 7 nM
IC50 (D168V HCV replicon cells; D168V replicon cells, 48-hour assay): 5090 nM and 4650 nM
IC50 (D168A HCV replicon cells): 1860 nM

CCC[C@H](NC(=O)C1[C@H]2CCC[C@H]2CN1C(=O)[C@@H](NC(=O)[C@@H](NC(=O)c1cnccn1)C1CCCCC1)C(C)(C)C)C(=O)C(=O)NC1CC1 (stereo partly shown) [VX-950]
Ki [5]: 100 nM
reduction of HCV RNA ([1]; 30 μM VX-950, series C replicon cells at day 52): ≤ 50%
Ki [6]: 43 nM
Ki [7]: 150 nM
IC50 ([2]; Hepatitis C virus, series A replicon cells at day 56): 8100 to 12000 nM
decrease in sensitivity conferred by the mutation (A156V HCV replicon cells): at least 75 fold
IC50 (A156V HCV replicon cells; Hepatitis C virus): > 30000 nM
reduction of HCV replicon RNA (A156V HCV replicon cells; up to 30 μM VX-950): No significant reduction
decrease in sensitivity conferred by the mutation (A156T HCV replicon cells): at least 75 fold
IC50 (A156T HCV replicon cells; Hepatitis C virus): > 30000 nM
reduction of HCV replicon RNA (A156T HCV replicon cells; up to 30 μM VX-950): No significant reduction
IC50 ([3]; 48-hour assay, HCV RNA level, read-out: Replicon IC50): 402 nM
IC50 ([3]; Hepatitis C virus, 48 h, 48-hour assay, HCV RNA level, read-out: Replicon IC50): 400 nM
IC50 ([4]; Hepatitis C virus): 354 nM
Ki [8]: 2900 nM
Ki higher than against the wild type protease [8]: 29 fold
IC50 [9]: ~300 nM
reduction of HCV RNA ([10]; 30 μM VX-950, series D replicon cells at day 52): ≤ 50%
IC50 higher than against the series B replicon cells ([10]; series D replicon cells at day 52): more than 100 fold
Ki [11]: 9900 nM
IC50 (A156S HCV replicon cells; Hepatitis C virus): 4650 nM
IC50 (A156S HCV replicon cells; Hepatitis C virus, 48 h, 48-hour assay, read-out: Replicon IC50): 4650 nM
IC50 (A156S HCV replicon cells; read-out: Replicon IC50, 48-hour assay): 5090 nM
IC50 (D168V HCV replicon cells; Hepatitis C virus, 48 h): 163 nM
IC50 (D168A HCV replicon cells; Hepatitis C virus): 193 nM
Ki [12]: 33000 nM

— patent publication US7884199B2, “HCV NS3-NS4 protease resistance mutants” (priority 2003, dated 2011)
